Reference: paper PMC7725003, “Systematically Studying the Optimal Amino Acid Distribution Patterns of the Amphiphilic Structure by Using the Ultrashort Amphiphiles” (Frontiers in Microbiology, 2020)
Where no end group is shown, it is not given here.

What was measured:
[1] = system: E. coli ATCC 25922; assay: Salt sensitivity assay (MIC); format: cell-based, Escherichia coli; settings: for MIC, FeCl3: 4 μM FeCl3; for MIC, NH4Cl: 6 μM NH4Cl; for MIC, ZnCl2: 8 μM ZnCl2; for MIC, MgCl2: 1 mM MgCl2; for MIC, CaCl2: 2 mM CaCl2; for MIC, KCl: 4.5 mM KCl; for MIC, NaCl: 150 mM NaCl; for MIC, Control: no added salt, three independent assays
Description: (§1) The antimicrobial activities of the peptides were measured using a method adapted from the National Committee for Clinical Laboratory Standards (NCCLS) with some modifications ([Chou et al., 2016]). The specific procedure for these assays has been previously described. In brief, the bacterial cells were grown to a mid-logarithmic phase and diluted in MHB to an ultimate concentration of 0.5–1 × 10^6 CFU mL^–1. Subsequently, the peptides were consecutively diluted in a 0.2% BSA solution and then added to a bacterial solution in a 96-well plate at identical volumes. After incubation for 24 h at 37°C, the MICs were determined to be the lowest peptide concentration that inhibited 95% of the bacterial growth by monitoring the absorbance at 492 nm using a microplate reader. Subsequently, 50 μL of each incubation mixture was further transferred to agar plates and incubated overnight. The minimum bactericidal concentrations (MBCs) were determined as the lowest peptide concentration that killed greater than 99.9% of the bacterial cells. Every assay was reproduced more than 3 times.
(§2) The salt sensitivities of the peptides were determined. E. coli ATCC 25922 and S. aureus ATCC 29213 were incubated in the presence of various ultimate concentrations of physiological salts (150 mM NaCl, 4.5 mM KCl, 6 μM NH4Cl, 8 μM ZnCl2, 1 mM MgCl2, 2mM CaCl2, and 4 μM FeCl3) according to our previous protocol ([Yang et al., 2019]). These tests were performed under the MICs, and three independent assays were performed.

[2] = system: S. pullorum 7913; format: cell-based, Salmonella pullorum; settings: 7913, 24 h
Description: as §1

[3] = system: B. subtilis 63501; format: cell-based, Bacillus subtilis; settings: 63501, 24 h
Description: as §1

[4] = system: E. coli 25922; format: cell-based, Escherichia coli; settings: 25922, 24 h
Description: as §1

[5] = system: E. coli O78; format: cell-based, Escherichia coli; settings: O78, 24 h
Description: as §1

[6] = system: E. coli UB1005; format: cell-based, Escherichia coli; settings: UB1005, 24 h
Description: as §1

[7] = system: S. aureus 29213; assay: Salt sensitivity assay (MIC); format: cell-based, Staphylococcus aureus; settings: for MIC, FeCl3: 4 μM FeCl3; for MIC, NH4Cl: 6 μM NH4Cl; for MIC, ZnCl2: 8 μM ZnCl2; for MIC, MgCl2: 1 mM MgCl2; for MIC, CaCl2: 2 mM CaCl2; for MIC, KCl: 4.5 mM KCl; for MIC, NaCl: 150 mM NaCl; for MIC, Control: no added salt, three independent assays
Description: as §1, §2

[8] = system: Listeria monocytogenes CGMCC 1.1075; format: cell-based; settings: CGMCC 1.1075, 24 h
Description: as §1

[9] = system: all of the tested bacterial strains; assay: Geometric mean of MICs, all tested bacterial strains; format: cell-based; settings: for GM, All: geometric mean of MICs across all tested strains; for TI, All: therapeutic index TI = MHC/GM MIC
Description: The antimicrobial activity of AMPs is the most decisive index for evaluating the clinical application of antimicrobial drugs. Many antimicrobial agents inhibit bacterial growth rather than kill the bacteria quickly, and long-term infections are pathogens that are not completely killed, which results in bacterial severe drug resistance. […] The geometric mean (GM) values of the MICs/MBCs of the two series across all of the tested bacterial strains are represented in Table 3, which depicts the average bacteriostatic/bactericidal level of a peptide.
as §1

[10] = system: E. faecalis 29212; format: cell-based, Enterococcus faecalis; settings: 29212, 24 h
Description: as §1

[11] = system: MRSA 43300; format: cell-based, methicillin-resistant S. aureus; settings: 43300, 24 h
Description: as §1

[12] = system: P. aeruginosa 27853; format: cell-based, Pseudomonas aeruginosa; settings: 27853, 24 h
Description: as §1

[13] = system: Gram-negative bacteria; settings: for GM, Gram-negative bacteria: geometric mean of MICs (Table 3); for TI, Gram-negative bacteria: therapeutic index TI = MHC/GM MIC
Description: (§3) The antimicrobial activity of AMPs is the most decisive index for evaluating the clinical application of antimicrobial drugs.
as §1, with “The minimum bactericidal concentrations (MBCs) were determined as the lowest peptide concentration that killed greater than 99.9% of the bacterial cells.” left out

[14] = system: Gram-positive bacteria; settings: for GM, Gram-positive bacteria: geometric mean of MICs (Table 3); for TI, Gram-positive bacteria: therapeutic index TI = MHC/GM MIC
Description: as §3
as §1, with “The minimum bactericidal concentrations (MBCs) were determined as the lowest peptide concentration that killed greater than 99.9% of the bacterial cells.” left out

[15] = system: S. epidermidis 12228; format: cell-based, Staphylococcus epidermidis; settings: 12228, 24 h
Description: as §1

[16] = system: S. aureus 29213; format: cell-based, Staphylococcus aureus; settings: 29213, 24 h
Description: as §1

[17] = system: S. aureus 25923; format: cell-based, Staphylococcus aureus; settings: 25923, 24 h
Description: as §1

[18] = system: S. typhimurium 7731; format: cell-based, Salmonella typhimurium; settings: 7731, 24 h
Description: as §1

[19] = system: S. typhimurium 14028; format: cell-based, Salmonella typhimurium; settings: 14028, 24 h
Description: as §1

Work on RWRWRRWWW-NH2 [W9] yielded an MIC, FeCl3 [1] of 4 µM, an MIC, NH4Cl [1] of 4 µM and an MIC, ZnCl2 [1] of 8 µM. For the same substance, the MIC, MgCl2 [1] was 8 µM, the MIC, CaCl2 [1] was 16 µM and the MIC, KCl [1] was 8 µM. It also gave an MIC, NaCl [1] of 16 µM, an MIC, Control [1] of 4 µM and an MBC [2] of 8 µM. It also gave an MIC [2] of 4 µM, an MBC [3] of 4 µM and an MIC [3] of 2 µM. The MBC [4] was 8 µM, the MIC [4] was 4 µM and the MBC [5] was 8 µM. The MIC [5] was 4 µM, the MBC [6] was 8 µM and the MIC [6] was 4 µM. The MIC, FeCl3 [7] was 2 µM, the MIC, NH4Cl [7] was 2 µM and the MIC, ZnCl2 [7] was 2 µM. The MIC, MgCl2 [7] was 2 µM, the MIC, CaCl2 [7] was 4 µM and the MIC, KCl [7] was 2 µM. The MIC, NaCl [7] was 2 µM, the MIC, Control [7] was 2 µM and the MBC [8] was 8 µM. The MIC [8] was 4 µM, the “GM, All” value [9] was 3.51 µM and the “TI, All” value [9] was 72.93. It also gave an MBC [10] of 8 µM, an MIC [10] of 4 µM and an MBC [11] of 4 µM. The MIC [11] was 2 µM, the MBC [12] was 16 µM and the MIC [12] was 8 µM. For the same substance, the “GM, Gram-negative bacteria” value [13] was 4.67 µM, the “TI, Gram-negative bacteria” value [13] was 54.82 and the “GM, Gram-positive bacteria” value [14] was 2.44 µM. For the same substance, the “TI, Gram-positive bacteria” value [14] was 104.92, the MBC [15] was 4 µM and the MIC [15] was 2 µM. For the same substance, the MBC [16] was 4 µM, the MIC [16] was 2 µM and the MBC [17] was 4 µM. The MIC [17] was 2 µM, the MBC [18] was 8 µM and the MIC [18] was 4 µM. The MBC [19] was 16 µM and the MIC [19] was 8 µM.
Substance RWWWWRRWR-NH2 [W10] has an MIC, FeCl3 [1] of 4 µM, an MIC, NH4Cl [1] of 8 µM and an MIC, ZnCl2 [1] of 4 µM. The MIC, MgCl2 [1] was 16 µM, the MIC, CaCl2 [1] was 16 µM and the MIC, KCl [1] was 16 µM. For the same substance, the MIC, NaCl [1] was 32 µM, the MIC, Control [1] was 8 µM and the MBC [2] was 32 µM. The MIC [2] was 16 µM, the MBC [3] was 4 µM and the MIC [3] was 2 µM. It also gave an MBC [4] of 16 µM, an MIC [4] of 8 µM and an MBC [5] of 8 µM. It also gave an MIC [5] of 4 µM, an MBC [6] of 16 µM and an MIC [6] of 8 µM. The MIC, FeCl3 [7] was 1 µM, the MIC, NH4Cl [7] was 1 µM and the MIC, ZnCl2 [7] was 1 µM. The MIC, MgCl2 [7] was 2 µM, the MIC, CaCl2 [7] was 2 µM and the MIC, KCl [7] was 2 µM. It also gave an MIC, NaCl [7] of 2 µM, an MIC, Control [7] of 2 µM and an MBC [8] of 4 µM. The MIC [8] was 2 µM, the “GM, All” value [9] was 3.67 µM and the “TI, All” value [9] was 69.75. It also gave an MBC [10] of 8 µM, an MIC [10] of 4 µM and an MBC [11] of 4 µM. The MIC [11] was 2 µM, the MBC [12] was 8 µM and the MIC [12] was 4 µM. The “GM, Gram-negative bacteria” value [13] was 5.44 µM, the “TI, Gram-negative bacteria” value [13] was 47.06 and the “GM, Gram-positive bacteria” value [14] was 2.21 µM. For the same substance, the “TI, Gram-positive bacteria” value [14] was 115.84, the MBC [15] was 4 µM and the MIC [15] was 2 µM. For the same substance, the MBC [16] was 4 µM, the MIC [16] was 2 µM and the MBC [17] was 4 µM. For the same substance, the MIC [17] was 2 µM, the MBC [18] was 8 µM and the MIC [18] was 4 µM. It also gave an MBC [19] of 16 µM and an MIC [19] of 8 µM.
